Source: US11179364B2, “Licofligozin for the treatment of non-alcoholic steatohepatitis” (NOVARTIS AG, priority 2017, dated 2021)
Like-named read-outs stand apart in the source and are kept apart here.

Tests used:
[1] = In vitro pharmacokinetic drug interaction studies; assay type: in vitro ADME
Permeability = assay type: in vitro ADME
[2] = Oral toxicity studies in rats
[3] = Oral toxicity studies in dogs; assay type: in vivo
Solubility = assay type: physicochemical
[4] = 12 week study in obese patients; assay type: in vivo, human
[5] = Dose/exposure-response analysis from completed clinical studies; assay type: in vivo, human
Experimental: The primary efficacy endpoint for dose/exposure-response analysis for LIK066, from previously completed clinical studies, was body weight loss, and other pharmacodynamic endpoints such as urinary and plasma glucose. The estimated ED50 and ED90 of LIK066 based on once a day dosing were approximately 5 mg and 50 mg, respectively, based on a body weight loss model. The estimated ED50 and ED90 based on other relevant pharmacodynamics endpoints such as urinary and plasma glucose were approximately 3-10 mg and 30-100 mg, respectively. […] Therefore this dose is tested first, with introduction of the 30 mg dose later to assure futility evaluation prior to enrollment of the entire cohort for the study. […] The diarrhea associated with LIK066 could be mitigated by dietary modification such as reduction in carbohydrate intake. Body weight loss is an important factor in therapeutic development for NASH as weight loss through either bariatric surgery or life style modification deters progression of the disease.

[6] = system: other glucose transporters (GLUTs); assay: Selectivity against other glucose transporters; assay type: biochemical
[7] = Single and multiple dose studies in healthy volunteers and T2DM patients; assay type: in vivo, human
P-glycoprotein (P-gp) = P-glycoprotein (P-gp) (Homo sapiens, UniProt P08183); assay: P-glycoprotein substrate assessment; assay type: in vitro ADME
[8] = Dog pharmacokinetics, tablet vs solution, crossover; assay type: in vivo; conditions: single dose of 50 mg/dog, dogs
[9] = Excretion of [14C] LIK066-related radioactivity in rats; assay type: in vivo
[10] = Clinical pharmacokinetics; conditions: human, in vivo; read-out: pharmacokinetic elimination half-life
SGLT2 = target: T1, SGLT2 (Homo sapiens, UniProt P31639); assay: SGLT2 inhibition; assay type: biochemical
T1 sequence (P31639 1-672): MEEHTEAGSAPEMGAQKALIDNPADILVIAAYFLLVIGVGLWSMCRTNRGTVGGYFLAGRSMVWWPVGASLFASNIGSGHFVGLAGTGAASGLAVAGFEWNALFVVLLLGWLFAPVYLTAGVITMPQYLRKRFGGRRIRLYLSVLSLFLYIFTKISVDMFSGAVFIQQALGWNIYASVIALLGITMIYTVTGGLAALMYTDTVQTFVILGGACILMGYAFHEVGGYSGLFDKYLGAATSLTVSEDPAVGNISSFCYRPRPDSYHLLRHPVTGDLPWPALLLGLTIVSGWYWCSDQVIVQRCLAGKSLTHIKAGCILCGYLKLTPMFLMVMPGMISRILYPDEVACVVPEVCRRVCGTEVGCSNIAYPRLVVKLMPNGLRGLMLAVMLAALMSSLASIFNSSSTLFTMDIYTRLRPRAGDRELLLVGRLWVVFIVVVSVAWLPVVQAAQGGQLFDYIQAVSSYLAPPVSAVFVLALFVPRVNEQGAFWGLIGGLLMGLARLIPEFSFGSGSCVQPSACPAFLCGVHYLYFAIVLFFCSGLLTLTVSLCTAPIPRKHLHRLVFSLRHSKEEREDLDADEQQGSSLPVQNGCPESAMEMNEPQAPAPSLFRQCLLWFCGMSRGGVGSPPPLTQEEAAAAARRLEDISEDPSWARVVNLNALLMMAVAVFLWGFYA

human hepatocytes = assay: Clearance pathways in human hepatocytes; assay type: in vitro ADME
hERG = hERG (Homo sapiens, UniProt Q12809); assay: hERG inhibitory activity; assay type: biochemical; conditions: at the maximal soluble concentration (16 μM)
[11] = rat, in vivo
SGLT1 = target: T2, SGLT1 (Homo sapiens, UniProt P13866); assay: SGLT1 inhibition; assay type: biochemical
T2 sequence (P13866 1-664): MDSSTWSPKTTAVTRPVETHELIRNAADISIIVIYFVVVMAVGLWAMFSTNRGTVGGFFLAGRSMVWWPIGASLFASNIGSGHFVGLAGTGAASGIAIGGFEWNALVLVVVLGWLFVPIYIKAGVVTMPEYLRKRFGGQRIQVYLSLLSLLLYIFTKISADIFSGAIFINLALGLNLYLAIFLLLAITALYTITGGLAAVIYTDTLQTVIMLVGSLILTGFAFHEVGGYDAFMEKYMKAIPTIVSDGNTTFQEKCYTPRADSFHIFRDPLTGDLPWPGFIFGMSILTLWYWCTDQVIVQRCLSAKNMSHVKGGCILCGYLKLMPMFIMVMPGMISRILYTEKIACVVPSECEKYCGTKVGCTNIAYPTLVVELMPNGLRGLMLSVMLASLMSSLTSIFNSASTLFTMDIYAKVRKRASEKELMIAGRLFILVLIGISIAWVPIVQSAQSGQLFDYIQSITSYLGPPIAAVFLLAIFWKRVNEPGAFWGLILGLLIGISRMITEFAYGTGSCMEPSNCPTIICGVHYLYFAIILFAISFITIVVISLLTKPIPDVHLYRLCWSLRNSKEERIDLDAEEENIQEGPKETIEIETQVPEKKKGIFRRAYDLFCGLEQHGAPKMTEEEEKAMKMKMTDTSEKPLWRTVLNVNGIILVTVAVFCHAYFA

[12] = Tissue distribution study in rats; assay type: in vivo
[13] = once a day dosing, body weight loss model
[14] = urinary and plasma glucose endpoints

Sequence of hERG (Q12809 whole entry): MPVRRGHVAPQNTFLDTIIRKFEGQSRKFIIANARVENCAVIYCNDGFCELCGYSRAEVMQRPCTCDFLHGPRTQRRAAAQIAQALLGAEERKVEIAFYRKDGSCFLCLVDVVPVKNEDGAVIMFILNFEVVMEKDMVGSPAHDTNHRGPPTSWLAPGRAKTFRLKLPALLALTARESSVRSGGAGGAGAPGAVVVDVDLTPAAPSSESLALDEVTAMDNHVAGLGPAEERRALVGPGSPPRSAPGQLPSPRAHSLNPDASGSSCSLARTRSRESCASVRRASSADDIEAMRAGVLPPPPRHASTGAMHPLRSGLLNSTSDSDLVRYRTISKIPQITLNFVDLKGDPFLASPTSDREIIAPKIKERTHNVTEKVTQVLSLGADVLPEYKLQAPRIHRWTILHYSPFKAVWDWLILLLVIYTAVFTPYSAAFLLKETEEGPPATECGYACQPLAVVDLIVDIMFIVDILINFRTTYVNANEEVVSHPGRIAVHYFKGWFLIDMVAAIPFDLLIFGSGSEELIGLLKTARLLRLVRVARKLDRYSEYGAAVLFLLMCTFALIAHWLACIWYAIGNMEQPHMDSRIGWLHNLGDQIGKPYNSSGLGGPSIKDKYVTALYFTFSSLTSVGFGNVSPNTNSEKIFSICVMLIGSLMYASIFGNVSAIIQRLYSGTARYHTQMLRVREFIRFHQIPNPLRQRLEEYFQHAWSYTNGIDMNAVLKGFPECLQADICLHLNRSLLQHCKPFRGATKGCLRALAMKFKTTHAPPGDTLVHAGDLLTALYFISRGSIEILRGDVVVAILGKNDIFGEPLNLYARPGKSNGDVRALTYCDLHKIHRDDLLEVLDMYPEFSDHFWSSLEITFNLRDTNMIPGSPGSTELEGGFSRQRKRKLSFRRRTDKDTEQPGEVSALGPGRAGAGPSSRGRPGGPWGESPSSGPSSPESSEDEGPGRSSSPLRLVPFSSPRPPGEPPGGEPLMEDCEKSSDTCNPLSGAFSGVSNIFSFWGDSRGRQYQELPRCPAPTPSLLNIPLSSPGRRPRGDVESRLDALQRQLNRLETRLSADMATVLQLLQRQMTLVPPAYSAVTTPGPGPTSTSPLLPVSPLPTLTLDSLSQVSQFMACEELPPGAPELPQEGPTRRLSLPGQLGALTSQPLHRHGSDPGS
Sequence of P-glycoprotein (P-gp) (P08183 whole entry): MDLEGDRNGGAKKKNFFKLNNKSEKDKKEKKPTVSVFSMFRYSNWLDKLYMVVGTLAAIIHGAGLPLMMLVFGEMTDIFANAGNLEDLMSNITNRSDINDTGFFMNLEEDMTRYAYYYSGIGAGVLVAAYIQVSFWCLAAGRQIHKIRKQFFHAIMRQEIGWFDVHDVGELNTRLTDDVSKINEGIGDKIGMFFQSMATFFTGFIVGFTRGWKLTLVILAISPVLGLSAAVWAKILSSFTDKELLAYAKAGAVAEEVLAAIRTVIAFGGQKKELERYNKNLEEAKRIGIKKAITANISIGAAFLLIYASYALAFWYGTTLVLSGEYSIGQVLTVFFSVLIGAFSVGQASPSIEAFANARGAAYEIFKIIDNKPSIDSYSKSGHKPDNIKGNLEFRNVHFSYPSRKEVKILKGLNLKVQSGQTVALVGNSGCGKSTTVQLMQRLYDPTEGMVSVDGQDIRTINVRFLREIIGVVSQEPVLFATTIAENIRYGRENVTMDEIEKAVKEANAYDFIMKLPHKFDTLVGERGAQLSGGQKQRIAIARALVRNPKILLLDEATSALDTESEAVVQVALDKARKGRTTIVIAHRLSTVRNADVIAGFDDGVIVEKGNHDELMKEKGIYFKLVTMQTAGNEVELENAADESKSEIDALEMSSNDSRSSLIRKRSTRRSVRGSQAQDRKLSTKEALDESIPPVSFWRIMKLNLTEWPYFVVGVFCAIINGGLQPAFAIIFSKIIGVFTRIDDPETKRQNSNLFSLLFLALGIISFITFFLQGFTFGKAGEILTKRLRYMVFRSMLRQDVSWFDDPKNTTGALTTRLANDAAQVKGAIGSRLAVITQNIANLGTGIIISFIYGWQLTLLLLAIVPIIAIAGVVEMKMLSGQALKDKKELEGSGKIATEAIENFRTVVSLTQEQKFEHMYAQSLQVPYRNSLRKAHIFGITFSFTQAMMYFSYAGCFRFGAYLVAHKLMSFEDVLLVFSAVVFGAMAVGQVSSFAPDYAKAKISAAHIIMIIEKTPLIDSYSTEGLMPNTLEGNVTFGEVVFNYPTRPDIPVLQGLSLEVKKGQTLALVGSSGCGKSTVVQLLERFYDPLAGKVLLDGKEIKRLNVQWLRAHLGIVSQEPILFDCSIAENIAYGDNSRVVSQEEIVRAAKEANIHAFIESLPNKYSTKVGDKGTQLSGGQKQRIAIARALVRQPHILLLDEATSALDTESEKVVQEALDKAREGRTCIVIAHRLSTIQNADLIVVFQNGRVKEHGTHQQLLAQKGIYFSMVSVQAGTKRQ

## CCc1ccc([C@@H]2O[C@H](CO)[C@@H](O)[C@H](O)[C@H]2O)cc1Cc1ccc2c(c1)OCCO2 [LIK066, (2S,3R,4R,5S,6R)-2-(3-((2,3-dihydrobenzo[b][1,4]dioxin-6-yl)methyl)-4-ethylphenyl)-6-(hydroxymethyl)tetrahydro-2H-pyran-3,4,5-triol]
[1]
  potential to act as a perpetrator of pharmacokinetic drug interactions: low potential
Permeability
  permeability: good permeability
[2]; oral, rats, up to 26-weeks
  principal target organs of toxicity: gastrointestinal tract, kidney, urinary tract, bone, liver and adrenal glands
[2]; rat, in vivo, oral
  NOAEL: 5 mg/kg/day
[2]; rats, at almost all doses
  body weight gain: reduced body weight gain
[3]; dog, in vivo, oral, read-out: no observed adverse effect level (NOAEL)
  NOAEL: 0.5 mg/kg/day
[3]; dogs, at almost all doses
  body weight gain: reduced body weight gain
[3]; dogs, prolonged periods (≥6 weeks), body weight loss, fecal changes and dehydration
  doses not tolerated: ≥ 10 mg/kg
[3]; oral, dogs, up to 13-weeks
  principal target organs of toxicity: gastrointestinal tract, kidney, urinary tract, bone, liver and adrenal glands
Solubility
  solubility: good solubility
[4]; 150 mg daily dose (qd, b.i.d or tid), obese patients, 12 week treatment
  weight loss: ~6%
[4]; 150 mg dose, previous phase 2 study
  weight loss: significant weight loss
[4]; 150 mg qd, twelve weeks
  dose-limiting toxicity / primary AE: diarrhea
[4]; 150 mg qd, twelve weeks, normoglycemic and dysglycemic subjects / obese patients
  safety and tolerability: generally safe and well tolerated
[5]; [13]
  estimated ED50: approximately 5 mg
  estimated ED90: ~50 mg
[5]; [14]
  estimated ED50: 3 to 10 mg
  estimated ED90: 30 to 100 mg
[6]
  selectivity against other glucose transporters (GLUTs): high selectivity
[7]; healthy volunteers and patients with T2DM
  safety and tolerability: safe and tolerated
[7]; human, in vivo
  pharmacokinetic profile: favorable
[7]; over 2 weeks, healthy subjects and patients with T2DM
  placebo-adjusted weight loss: up to 3%
[7]; patients with T2DM
  glucose AUC after an oral glucose tolerance test (OGTT): significantly lowered
[7]; single and multiple doses, healthy volunteers and patients with T2DM
  glucosuria: induced glucosuria
P-glycoprotein (P-gp)
  P-glycoprotein (P-gp) substrate: is a substrate
[8]
  pharmacokinetics, tablet vs solution formulations: comparable
[9]
  excretion of [14C] LIK066-related radioactivity: excreted in both urine and feces, mainly as metabolites
[10]
  half-life: 10 to 16 h
SGLT2
  inhibition of SGLT2: potent inhibitor
Human hepatocytes
  predominant clearance pathway: Direct glucuronidation (via the UDP-glucuronosyl transferase (UGT1A9))
  second clearance pathway (followed by): oxidative metabolism (CYP3A4)
hERG
  inhibitory hERG activity: no significant inhibitory hERG activity
[11]; 4 weeks
  tolerated dose: up to 100 mg/kg
[11]; 26 weeks
  tolerated dose: up to 30 mg/kg
SGLT1
  inhibition of SGLT1: potent inhibitor
[12]
  distribution to the central nervous system and reproductive organs: relatively low distribution
